Laboratory results taken from patent publication US20030044974A1, “Method for collecting cells in M phase or G1 phase and method for nuclear transplantation using the cells” (priority 2001, published 2003).
Marks after values point to notes of the source that are not given here.

Key:
bovine fibroblast cells [1] = test: Collection of M phase cells: synchronization, shaking treatment and selection by size with 20 μm pipette (Example 1)
Text: As the bovine fibroblast cells (Japanese black), the cells from a fetal at Day 54 from conception were used. The recovered fetus was aseptically minced and digested with trypsin. The cell suspension was recovered and cultured in Dulbecco's modified eagle medium (D-MEM, Gibco BRL, Cat No. 11885-084, MD, USA), followed by storing frozen cells (one passage). For experiments, the frozen stored cells seeded on a 10 cm plastic petri dish (Falcon, 353003) were once subcultured, and the cells grown to logarithmic growth phase were used.
For synchronization to metaphase, 10% FBS-containing minimum essential medium (S-MEM, Cat. No.11385-036,Gibco BRL, MD, USA) supplemented with 2-methoxyestadiol (2-MeOE2, Cat No.M6383, Sigma chemical Co., MO, USA) to a concentration of 0.5 μM or 1 μM was used.
Each preparation was stained with Hoechst 33342 (Sigma Chemical Co, MO, USA) and observed with a fluorescence microscope. Only the cells having clear boundary of cell membrane were used for judgment. In Comparative Examples 1 and 2, the cells in prophase, metaphase, anaphase and telophase of cell cycle were classified into the cells in mitotic phase (M phase). The cells containing only one nucleus covered with a nuclear membrane were judged as the cells in interphase. The cells in which the nucleus in the cytoplasm is fragmented, the cells containing no nucleus in the cytoplasm, and the cells having a lot of nuclei in the cytoplasm were judged as abnormal cells. In Examples 1 and 2, M phase cells were further classified into normal metaphase cells (the one nucleus in metaphase is located in the cytoplasm) and abnormal metaphase cells (the two or more nuclei in metaphase are located in the cytoplasm). The cells in interphase were classified into normal interphase cells (only one nucleus having nuclear membrane exists in the cytoplasm) and abnormal interphase cells (two or more nuclei having nuclear membrane exist in the cytoplasm, or the nucleus in the cytoplasm is fragmented).
D-MEM medium in a petri dish containing cells in logarithmic growth phase was replaced with 5 ml of S-MEM medium containing 1.0 μM 2-MeOE2, and the culturing was continued. Thirty minutes later, the shaking treatment was carried out as in Comparative Example 1 and the culture supernatant was discarded. To the petri dish after discarding the culture supernatant, fresh S-MEM medium containing 1 μM 2-MeOE2 was added and the culture was continued for another 30 minutes. Thirty minutes later, the shaking treatment was carried out as described above and the culture supernatant was centrifuged (1000 rpm, 5 minutes) to recover the cells (second time recovered cells). An aliquot of the collected cells was transferred to D-MEM medium containing 1 μM 2-MeOE2, and substantially spherical cells having clear boundary of cell membrane and having a diameter slightly larger than 20 μm were selected within 30 minutes using a glass pipette (COOK, Cat.No.PBBP-2000) having an inner diameter of 20 μm. The selected cells were immediately transferred to phosphate buffered saline (D-PBS) containing Hoechst33342 and 1 μM 2-MeOE2, and cell cycles were determined under an inverted fluorescence microscope.

bovine fibroblast cells [2] = test: Combination of metaphase-synchronizing agent and shaking treatment: cell cycles of cells recovered from culture supernatant (Comparative Example 2); assay type: cell-based
Method: Fibroblast Cells and Observation Thereof Fetal fibroblast cells were recovered by collecting the medium containing the cells in a 15 ml test tube and by centrifuging the medium (180g, 5 minutes). After the centrifugation, the cell precipitate was resuspended with a small amount of the medium, and the resulting cell suspension was uniformly smeared on a slide glass. The slide glass was air-dried at room temperature and the cells were fixed (99.9% ethanol, 5 minutes) to prepare preparations.
Thirty minutes later, the whole culture supernatant was recovered after subjecting the petri dish to shaking treatment, or without the shaking treatment. The shaking treatment was carried out by intimately attaching the bottom plate of the plastic petri dish to a mixer (IKEDA RIKA, D-10) and driving the mixer to circularly move the petri dish for 1 minute (3000 rpm, diameter of circular movement: 0.3 cm). […] The cell pellet was resuspended in a small amount of the medium and the obtained cell suspension was smeared on a slide glass.
How the cell cycles of the cells recovered from the culture supernatant change by combination of the metaphase-synchronizing agent (2-MeOE2) and the shaking treatment was investigated with successively repeating the step of shaking treatment and the subsequent recovery 3 times. […] Thirty minutes later, shaking treatment was performed as in the first time and the second time, and the culture supernatant was centrifuged to recover the cells (third time recovered cells). The cells obtained using different concentrations of the metaphase-synchronizing agent and obtained in different times of recovery were respectively resuspended in a small amount of the medium and smear preparations were prepared. The smear preparations were air-dried, fixed, stained and observed.

cells = settings: nocodazole treatment, cells collected by the shaking method; cited from earlier work
[3] = 1 μM 2-MeOE2, second culture, shaking treatment, diameter not less than about 20 μm
[4] = 1 μM 2-MeOE2, second time recovered cells, 20 μm pipette, of 249 observed cells
[5] = 1 μM 2-MeOE2, second time recovered cells, selected with 20 μm pipette
[6] = 0.5 μM 2-MeOE2, first time recovered cells
[7] = 0.5 μM 2-MeOE2, first time recovered cells, of 2046 observed cells
[8] = 0.5 μM 2-MeOE2, second time recovered cells
[9] = 0.5 μM 2-MeOE2, second time recovered cells, of 2078 observed cells
[10] = 0.5 μM 2-MeOE2, third time recovered cells
[11] = 0.5 μM 2-MeOE2, third time recovered cells, of 2052 observed cells
[12] = 1 μM 2-MeOE2, first time recovered cells
[13] = 1 μM 2-MeOE2, first time recovered cells, of 2033 observed cells
[14] = 1 μM 2-MeOE2, second time recovered cells
[15] = 1 μM 2-MeOE2, second time recovered cells, of 2075 observed cells
[16] = 1 μM 2-MeOE2, third time recovered cells
[17] = 1 μM 2-MeOE2, third time recovered cells, of 2126 observed cells

COc1cc2c(cc1O)CC[C@@H]1[C@@H]2CC[C@]2(C)[C@@H](O)CC[C@@H]12 [2-MeOE2, 2-methoxyestradiol]
M phase cells among the collected cells (bovine fibroblast cells [1]; [3]): 99.1% | normal metaphase cells among the collected cells (243/246) (bovine fibroblast cells [1]; [3]): 98.8% | Number of Abnormal Interphase Cells (bovine fibroblast cells [1]; [4]): 0 | Number of Abnormal Metaphase Cells (bovine fibroblast cells [1]; [4]): 3 | Number of Normal Interphase Cells (bovine fibroblast cells [1]; [4]): 3 | Number of Normal Metaphase Cells (bovine fibroblast cells [1]; [4]): 243 | Number of Abnormal Interphase Cells (mean ± SD(%)) (bovine fibroblast cells [1]; [5]): (0.0 ± 0.0) % | Number of Abnormal Metaphase Cells (mean ± SD(%)) (bovine fibroblast cells [1]; [5]): (1.3 ± 2.5) % | Number of Normal Interphase Cells (mean ± SD(%)) (bovine fibroblast cells [1]; [5]): (1.0 ± 1.1) % | Number of Normal Metaphase Cells (mean ± SD(%)) (bovine fibroblast cells [1]; [5]): (97.8% ± 2.1) | Number of Metaphase Cells (mean ± SD(%)) (bovine fibroblast cells [2]; 0.5 μM 2-MeOE2, 30 min, first time recovered cells, shaking treatment): (28.8 ± 3.0^a) % | Number of Abnormal Cells (mean ± SD(%)) (bovine fibroblast cells [2]; [6]): (15.4 ± 5.8^a) % | Number of Normal Interphase Cells (mean ± SD(%)) (bovine fibroblast cells [2]; [6]): (55.8 ± 3.6^a) % | Number of Abnormal Cells (bovine fibroblast cells [2]; [7]): 313 | Number of Metaphase Cells (bovine fibroblast cells [2]; [7]): 591 | Number of Normal Interphase Cells (bovine fibroblast cells [2]; [7]): 1142 | Number of Abnormal Cells (mean ± SD(%)) (bovine fibroblast cells [2]; [8]): (6.6 ± 4.2^bc) % | Number of Metaphase Cells (mean ± SD(%)) (bovine fibroblast cells [2]; [8]): (45.2 ± 7.9^bc) % | Number of Abnormal Cells (bovine fibroblast cells [2]; [9]): 135 | Number of Metaphase Cells (bovine fibroblast cells [2]; [9]): 940 | Number of Normal Interphase Cells (bovine fibroblast cells [2]; [9]): 1003 | Number of Abnormal Cells (mean ± SD(%)) (bovine fibroblast cells [2]; [10]): (6.4 ± 3.9^c) % | Number of Metaphase Cells (mean ± SD(%)) (bovine fibroblast cells [2]; [10]): (46.0 ± 7.5^c) % | Number of Normal Interphase Cells (mean ± SD(%)) (bovine fibroblast cells [2]; [10]): (47.6 ± 4.7^c) % | Number of Abnormal Cells (bovine fibroblast cells [2]; [11]): 130 | Number of Metaphase Cells (bovine fibroblast cells [2]; [11]): 945 | Number of Normal Interphase Cells (bovine fibroblast cells [2]; [11]): 977 | percentage of the M phase cells (bovine fibroblast cells [2]; 0.5 μM or 1.0 μM 2-MeOE2 with shaking treatment, first to third time recovered cells, shaking only 26.1%): 28.8 to 81.2% | Number of Abnormal Cells (mean ± SD(%)) (bovine fibroblast cells [2]; [12]): (11.4 ± 5.6^d) % | Number of Metaphase Cells (mean ± SD(%)) (bovine fibroblast cells [2]; [12]): (50.1 ± 8.6^d) % | Number of Normal Interphase Cells (mean ± SD(%)) (bovine fibroblast cells [2]; [12]): (38.5 ± 6.8^d) % | Number of Abnormal Cells (bovine fibroblast cells [2]; [13]): 232 | Number of Metaphase Cells (bovine fibroblast cells [2]; [13]): 1017 | Number of Normal Interphase Cells (bovine fibroblast cells [2]; [13]): 784 | Number of Abnormal Cells (mean ± SD(%)) (bovine fibroblast cells [2]; [14]): (3.1 ± 1.5^ef) % | Number of Metaphase Cells (mean ± SD(%)) (bovine fibroblast cells [2]; [14]): (77.7 ± 5.4^e) % | Number of Normal Interphase Cells (mean ± SD(%)) (bovine fibroblast cells [2]; [14]): (19.2 ± 5.0^ef) % | Number of Abnormal Cells (bovine fibroblast cells [2]; [15]): 63 | Number of Metaphase Cells (bovine fibroblast cells [2]; [15]): 1614 | Number of Normal Interphase Cells (bovine fibroblast cells [2]; [15]): 398 | Number of Abnormal Cells (mean ± SD(%)) (bovine fibroblast cells [2]; [16]): (3.2 ± 1.7^f) % | Number of Metaphase Cells (mean ± SD(%)) (bovine fibroblast cells [2]; [16]): (81.2 ± 5.0^f) % | Number of Normal Interphase Cells (mean ± SD(%)) (bovine fibroblast cells [2]; [16]): (15.6 ± 3.3^f) % | Number of Abnormal Cells (bovine fibroblast cells [2]; [17]): 68 | Number of Metaphase Cells (bovine fibroblast cells [2]; [17]): 1728 | Number of Normal Interphase Cells (bovine fibroblast cells [2]; [17]): 330

COC(=O)Nc1nc2ccc(C(=O)c3cccs3)cc2[nH]1 [nocodazole]
cells in the metaphase obtained (cells): 25 to 34%
